21 compounds from patent US20260242391A1 (priority 2023, published 2026) can be followed below.

One data set concerns HL-60. Kind of data set: HL-60 differentiation potency. Format: cell-based. The following applies: Homo sapiens.
Another data set can be described thus: in vitro. The note with it: human.

In general, EC50 refers to the concentration giving half of the maximal effect. A higher EC50 goes with a need for much substance. The IC50 is the concentration at which inhibition is half-maximal. Higher therefore signals a need for much substance. Consider `C[C@H]1[C@@H](OC2C[C@H]3CC(C(=O)O)C[C@@H]23)O[C@@H]2O[C@@]3(C)CC[C@H]4[C@H](C)CC[C@@H]1[C@@]24OO3` (stereo partly drawn) [Compound 157, (1R,5R)-6-(((3R,5aS,6R,8aS, 9R,10S,12R, 12aR)-3,6,9-trimethyldeca-hydro-12H-3,12-epoxy[1,2]dioxepino[4,3-i]isochromen-10-yl)oxy)bicyclo [3.2.0]heptane-3-carboxylic acid], for which a half-maximal effect in the data set with HL-60 (EC50) was put at 0.797 µM. In addition, in the data set “in vitro”, the IC50 was greater than 20 µM.

`C[C@H]1[C@@H](Oc2ccc(C(F)(F)C(=O)O)cc2)O[C@@H]2O[C@@]3(C)CC[C@H]4[C@H](C)CC[C@@H]1[C@@]24OO3` [Compound 171, 2,2-difluoro-2-(4-(((3R,5aS,6R,8aS, 9R,10S,12R, 12aR)-3,6,9-trimethyldeca-hydro-12H-3,12-epoxy[1,2]dioxepino[4,3-i]isochromen-10-yl)oxy)phenyl) acetic acid] showed an EC50 with HL-60 of 7.07 µM. In addition, the IC50 in “in vitro” was greater than 20 µM.

In the data set on HL-60, `C[C@H]1[C@@H](OCc2c(Cl)cc(C(=O)O)cc2Cl)O[C@@H]2O[C@@]3(C)CC[C@H]4[C@H](C)CC[C@@H]1[C@@]24OO3` [Compound 177, 3,5-dichloro-4-((((3R,5aS,6R,8aS, 9R,10S,12R, 12aR)-3,6,9-trimethyldeca-hydro-12H-3,12-epoxy[1,2]dioxepino[4,3-i]isochromen-10-yl)oxy)methyl) benzoic acid] registered an EC50 of 0.0445 µM. The IC50 in “in vitro” was found to be 0.66 µM.

`C[C@H]1[C@@H](OCc2ccc(C(=O)O)c(F)c2F)O[C@@H]2O[C@@]3(C)CC[C@H]4[C@H](C)CC[C@@H]1[C@@]24OO3` [Compound 31, 2,3-difluoro-4-((((3R,5aS,6R, 8aS,9R,10S,12R, 12aR)-3,6,9-trimethyldeca-hydro-12H-3,12-epoxy[1,2]dioxepino[4,3-i]isochromen-10-yl)oxy)methyl) benzoic acid] had an EC50 with HL-60 of 0.324 µM. The IC50 in “in vitro” was greater than 20 µM.

As for `C[C@H]1[C@@H](OCC23CC(C(=O)O)(C2)C3)O[C@@H]2O[C@@]3(C)CC[C@H]4[C@H](C)CC[C@@H]1[C@@]24OO3` [Compound 55, 3-((((3R,5aS,6R,8aS, 9R,10S,12R, 12aR)-3,6,9-trimethyldeca-hydro-12H-3,12-epoxy[1,2]dioxepino[4,3-i]isochromen-10-yl)oxy)methyl) bicyclo[1.1.1] pentane-1-carboxylic acid], the EC50 with HL-60 was found to be 7.4 µM. This compound also registered an IC50 in the data set “in vitro” greater than 20 µM.

In the data set with HL-60, `C[C@H]1[C@@H](Oc2cccc(CC(=O)O)c2)O[C@@H]2O[C@@]3(C)CC[C@H]4[C@H](C)CC[C@@H]1[C@@]24OO3` [Compound 20, 2-(3-(((3R,5aS,6R, 8aS,9R,10S,12R, 12aR)-3,6,9-trimethyldeca-hydro-12H-3,12-epoxy[1,2]dioxepino[4,3-i]isochromen-10-yl)oxy)phenyl) acetic acid] yielded an EC50 of 0.117 µM. In addition, in the data set “in vitro”, inhibition was half-maximal at 8.33 µM (IC50).

As to `C[C@H]1[C@H](CCNS(C)(=O)=O)O[C@@H]2O[C@@]3(C)CC[C@H]4[C@H](C)CC[C@@H]1[C@@]24OO3` [Compound 62, N-(2-((3R,5aS,6R,8aS, 9R,10S,12R, 12aR)-3,6,9-trimethyldeca-hydro-12H-3,12-epoxy[1,2]dioxepino[4,3-i]isochromen-10-yl)ethyl) methane-sulfonamide], the response in the data set on HL-60 was half-maximal at 16.4 µM (EC50). Also, the IC50 in “in vitro” was greater than 20 µM.

In the data set on HL-60, `C[C@H]1[C@H](Oc2ccc(C(=O)C(=O)O)cc2)O[C@@H]2O[C@@]3(C)CC[C@H]4[C@H](C)CC[C@@H]1[C@@]24OO3` [Compound 129, 2-oxo-2-(4-(((3R,5aS,6R,8aS, 9R,10R,12R, 12aR)-3,6,9-trimethyldeca-hydro-12H-3,12-epoxy[1,2]dioxepino[4,3-i]isochromen-10-yl)oxy)phenyl) acetic acid] yielded an EC50 of 3.38 µM. In the data set “in vitro”, this compound showed an IC50 of 10.5 µM.

As to `C[C@H]1[C@@H](OCc2ccc(B(O)O)cc2)O[C@@H]2O[C@@]3(C)CC[C@H]4[C@H](C)CC[C@@H]1[C@@]24OO3` [Compound 169, (4-((((3R,5aS,6R,8aS, 9R,10S,12R, 12aR)-3,6,9-trimethyldeca-hydro-12H-3,12-epoxy[1,2]dioxepino[4,3-i]isochromen-10-yl)oxy)methyl)phenyl)boronic acid], the EC50 with HL-60 amounted to 0.129 µM. The compound further had an IC50 in the data set “in vitro” of 0.27 µM.

`C[C@H]1[C@H](Oc2ccc(CC(=O)O)cc2)O[C@@H]2O[C@@]3(C)CC[C@H]4[C@H](C)CC[C@@H]1[C@@]24OO3` [Compound 12, 2-(4-(((3R,5aS, 6R,8aS,9R,10R, 12R,12aR)-3,6,9-trimethyldeca-hydro-12H-3,12-epoxy[1,2]dioxepino[4,3-i]isochromen-10-yl)oxy)phenyl) acetic acid] yielded an EC50 in the data set with HL-60 of 0.0924 µM. In addition, the IC50 in the data set “in vitro” is greater than 20 µM.

In the case of `C[C@H]1[C@@H](OCC(=O)N2CC[C@@H](C(=O)O)C2)O[C@@H]2O[C@@]3(C)CC[C@H]4[C@H](C)CC[C@@H]1[C@@]24OO3` [Compound 161, (R)-1-(2-(((3R,5aS,6R,8aS, 9R,10S,12R, 12aR)-3,6,9-trimethyldeca-hydro-12H-3,12-epoxy[1,2]dioxepino[4,3-i]isochromen-10-yl)oxy)acetyl) pyrrolidine-3-carboxylic acid], the EC50 with HL-60 is greater than 20 µM. In the data set “in vitro”, this compound had an IC50 greater than 20 µM.

In the data set on HL-60, `C[C@H]1[C@@H](OC(=O)Cn2ccc(C(F)(F)F)n2)O[C@@H]2O[C@@]3(C)CC[C@H]4[C@H](C)CC[C@@H]1[C@@]24OO3` [Compound 145, (3R,5aS,6R,8aS, 9R,10R,12R, 12aR)-3,6,9-trimethyldeca-hydro-12H-3,12-epoxy[1,2] dioxepino[4,3-i] isochromen-10-yl 2-(3-(trifluoro-methyl)-1H-pyrazol-1-yl)acetate] showed an EC50 of 0.0732 µM. Moreover, the IC50 in the data set “in vitro” is 0.11 µM.

In the case of `C[C@H]1[C@@H](OC[C@H]2CC[C@@H](C(=O)NC(C)(C)C)CC2)O[C@@H]2O[C@@]3(C)CC[C@H]4[C@H](C)CC[C@@H]1[C@@]24OO3` [Compound 153, (1R,4s)-N-(tert-butyl)-4-((((3R,5aS,6R,8aS, 9R,10S,12R, 12aR)-3,6,9-trimethyldeca-hydro-12H-3,12-epoxy[1,2]dioxepino[4,3-i]isochromen-10-yl)oxy)methyl) cyclohexane-1-carboxamide], the EC50 in the data set on HL-60 came to 0.0973 µM. Besides, the IC50 in the data set “in vitro” is 0.54 µM.

As for `C[C@H]1[C@H](OC[C@H]2CC[C@H](C(=O)O)CC2)O[C@@H]2O[C@@]3(C)CC[C@H]4[C@H](C)CC[C@@H]1[C@@]24OO3` [Compound 40, (1R,4r)-4-((((3R,5aS,6R,8aS, 9R,10R,12R, 12aR)-3,6,9-trimethyldeca-hydro-12H-3,12-epoxy[1,2]dioxepino[4,3-i]isochromen-10-yl)oxy)methyl) cyclohexane-1-carboxylic acid], in the data set on HL-60, the EC50 turned out to be 0.68 µM. In addition, the IC50 in the data set “in vitro” is greater than 20 µM.

With `C[C@H]1[C@H](N2CCC(C(=O)NC3CS(=O)(=O)C3)CC2)O[C@@H]2O[C@@]3(C)CC[C@H]4[C@H](C)CC[C@@H]1[C@@]24OO3` [Compound 65, N-(1,1-dioxidothietan-3-yl)-1-((3R,5aS,6R,8aS, 9R,10R,12R, 12aR)-3,6,9-trimethyldeca-hydro-12H-3,12-epoxy[1,2]dioxepino[4,3-i]isochromen-10-yl)piperidine-4-carboxamide], the EC50 with HL-60 is greater than 20 µM. The IC50 in “in vitro” was greater than 20 µM.

In turn, `C[C@H]1[C@@H](OCC2CC3C(C2)C3C(=O)O)O[C@@H]2O[C@@]3(C)CC[C@H]4[C@H](C)CC[C@@H]1[C@@]24OO3` (stereo partly drawn) [Compound 181, 3-((((3R,5aS,6R,8aS, 9R,10S,12R, 12aR)-3,6,9-trimethyldeca-hydro-12H-3,12-epoxy[1,2]dioxepino[4,3-i]isochromen-10-yl)oxy)methyl) bicyclo[3.1.0] hexane-6-carboxylic acid] showed an EC50 with HL-60 of 0.14 µM. In the data set “in vitro”, the IC50 was greater than 20 µM.

Compound `C[C@H]1[C@@H](OCC(=O)N2C[C@H](F)C[C@H]2C(=O)O)O[C@@H]2O[C@@]3(C)CC[C@H]4[C@H](C)CC[C@@H]1[C@@]24OO3` [Compound 150, (2S,4R)-4-fluoro-1-(2-(((3R,5aS,6R,8aS, 9R,10S,12R, 12aR)-3,6,9-trimethyldeca-hydro-12H-3,12-epoxy[1,2]dioxepino[4,3-i]isochromen-10-yl)oxy)acetyl) pyrrolidine-2-carboxylic acid] returned a 50% effective concentration (EC50) with HL-60 greater than 20 µM. Further, the IC50 in the data set “in vitro” was greater than 20 µM.

Regarding `C[C@H]1[C@@H](OCC(=O)N2C[C@@H](O)C[C@H]2C(=O)O)O[C@@H]2O[C@@]3(C)CC[C@H]4[C@H](C)CC[C@@H]1[C@@]24OO3` [Compound 160, (2S,4S)-4-hydroxy-1-(2-(((3R,5aS,6R,8aS, 9R,10S,12R, 12aR)-3,6,9-trimethyldeca-hydro-12H-3,12-epoxy[1,2]dioxepino[4,3-i]isochromen-10-yl)oxy)acetyl) pyrrolidine-2-carboxylic acid], the EC50 in the data set on HL-60 was greater than 20 µM. This compound also returned an IC50 in the data set “in vitro” greater than 20 µM.

`C[C@H]1[C@@H](OCc2cc(Cl)cc(C(=O)O)c2)O[C@@H]2O[C@@]3(C)CC[C@H]4[C@H](C)CC[C@@H]1[C@@]24OO3` [Compound 178, 3-chloro-5-((((3R,5aS,6R,8aS, 9R,10S,12R, 12aR)-3,6,9-trimethyldeca-hydro-12H-3,12-epoxy[1,2]dioxepino[4,3-i]isochromen-10-yl)oxy)methyl) benzoic acid] registered an EC50 with HL-60 of 0.243 µM. The same compound yielded an IC50 in the data set “in vitro” of 4 µM.

In the data set with HL-60, `C[C@H]1[C@H](N2CCC(C(=O)O)CC2)O[C@@H]2O[C@@]3(C)CC[C@H]4[C@H](C)CC[C@@H]1[C@@]24OO3` [Compound 64, 1-((3R,5aS,6R,8aS, 9R,10R,12R, 12aR)-3,6,9-trimethyldeca-hydro-12H-3,12-epoxy[1,2]dioxepino[4,3-i]isochromen-10-yl)piperidine-4-carboxylic acid] yielded an EC50 greater than 20 µM. In addition, the IC50 in the data set “in vitro” was greater than 20 µM.

Consider `C[C@H]1[C@@H](OCc2ccc(C(=O)O)o2)O[C@@H]2O[C@@]3(C)CC[C@H]4[C@H](C)CC[C@@H]1[C@@]24OO3` [Compound 32, 5-((((3R,5aS,6R, 8aS,9R,10S,12R, 12aR)-3,6,9-trimethyldeca-hydro-12H-3,12-epoxy[1,2]dioxepino[4,3-i]isochromen-10-yl)oxy)methyl) furan-2-carboxylic acid], for which a half-maximal response in the data set on HL-60 (EC50) required 0.333 µM. This compound displayed an IC50 in the data set “in vitro” greater than 20 µM.
